Data: patent US12291519B2, “2-hydroxycycloalkane-1-carbamoyl” (Idorsia Pharmaceuticals Ltd, priority 2019, dated 2025)

Legend:
human Gal-3 (hGal-3) = human Gal-3 (hGal-3) (Homo sapiens (Human), UniProt P17931); assay: Competitive binding assay: biotinylated hGal-3 binding to microplate-adsorbed asialofetuin (ASF); conditions: Activity on hGal-3; binding of biotinylated hGal-3 to ASF-coated plates; mean values
Method in brief: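 Serially diluted compounds competed with biotinylated human Gal-3 for binding to plate-adsorbed asialofetuin over 3 h at 4 °C. Bound Gal-3 was detected with streptavidin-peroxidase (80 ng/mL, 1 h, 4 °C) and ABTS substrate. IC50 values are means of several measurements.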

human Gal-1 (hGal-1) = assay: Competitive binding assay: biotinylated hGal-1 binding to microplate-adsorbed asialofetuin (ASF); conditions: Activity on hGal-1; binding of biotinylated hGal-1 to ASF-coated plates; mean values
Sequence of human Gal-1 (hGal-1) (P09382 2-135 limits assumed): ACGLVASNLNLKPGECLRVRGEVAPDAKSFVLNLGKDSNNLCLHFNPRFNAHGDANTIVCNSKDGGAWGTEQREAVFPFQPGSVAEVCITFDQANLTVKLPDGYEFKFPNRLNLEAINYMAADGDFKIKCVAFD
Method in brief: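 Inhibition measured as loss of hGal-1 (biotinylated, 300–1000 ng/mL, wild type or Cys→Ser mutant) binding to adsorbed asialofetuin over 3 h at 4 °C. Bound lectin detected with streptavidin-HRP and ABTS (410 nm, 30–45 min); IC50 values averaged across repeat measurements.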

Sequence of human Gal-3 (hGal-3) (P17931 whole entry): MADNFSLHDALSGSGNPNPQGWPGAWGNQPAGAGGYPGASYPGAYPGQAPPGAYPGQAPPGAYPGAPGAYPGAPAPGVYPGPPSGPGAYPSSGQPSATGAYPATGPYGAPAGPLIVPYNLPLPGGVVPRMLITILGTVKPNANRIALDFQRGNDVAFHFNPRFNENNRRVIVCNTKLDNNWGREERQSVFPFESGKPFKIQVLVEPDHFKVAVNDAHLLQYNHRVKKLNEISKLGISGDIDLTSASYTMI

COc1cc(C#N)cc(N(C(=O)[C@@H]2O[C@H](CO)[C@H](O)[C@H](n3cc(-c4cc(F)c(F)c(F)c4)nn3)[C@H]2OC)[C@H]2CCCC[C@@H]2O)c1 [Example 108, (2R,3R,4S,5R,6R)-N-(3-cyano-5-methoxyphenyl)-5-hydroxy-N-((1S,2S)-2-hydroxycyclohexyl)-6-(hydroxymethyl)-3-methoxy-4-(4-(3,4,5-trifluorophenyl)-1H-1,2,3-triazol-1-yl)tetrahydro-2H-pyran-2-carboxamide]
IC50 (human Gal-3 (hGal-3)): 24 nM | IC50 (human Gal-1 (hGal-1)): 1570 nM

CO[C@@H]1[C@@H](n2cc(-c3cc(F)c(F)c(F)c3)nn2)[C@@H](O)[C@@H](CO)O[C@H]1C(=O)N(c1cc(F)cc(F)c1)[C@H]1CCCC[C@@H]1O [Example 117, (2R,3R,4S,5R,6R)-N-(3,5-difluorophenyl)-5-hydroxy-N-((1S,2S)-2-hydroxycyclohexyl)-6-(hydroxymethyl)-3-methoxy-4-(4-(3,4,5-trifluorophenyl)-1H-1,2,3-triazol-1-yl)tetrahydro-2H-pyran-2-carboxamide]
IC50 (human Gal-3 (hGal-3)): 38 nM | IC50 (human Gal-1 (hGal-1)): 978 nM

CO[C@@H]1[C@@H](n2cc(-c3cc(F)cc(Cl)c3)nn2)[C@@H](O)[C@@H](CO)O[C@H]1C(=O)N(c1cc(C)cc(C#N)c1)[C@H]1CCCC[C@@H]1O [Example 140, (2R,3R,4S,5R,6R)-4-(4-(3-chloro-5-fluorophenyl)-1H-1,2,3-triazol-1-yl)-N-(3-cyano-5-methylphenyl)-5-hydroxy-N-((1S,2S)-2-hydroxycyclohexyl)-6-(hydroxymethyl)-3-methoxytetrahydro-2H-pyran-2-carboxamide]
IC50 (human Gal-3 (hGal-3)): 33 nM | IC50 (human Gal-1 (hGal-1)): 671 nM

CO[C@@H]1[C@@H](n2cc(-c3cc(F)cc(Cl)c3)nn2)[C@@H](O)[C@@H](CO)O[C@H]1C(=O)N(c1cccc(C#N)c1)[C@H]1CCCC[C@@H]1O [Example 142, (2R,3R,4S,5R,6R)-4-(4-(3-chloro-5-fluorophenyl)-1H-1,2,3-triazol-1-yl)-N-(3-cyanophenyl)-5-hydroxy-N-((1S,2S)-2-hydroxycyclohexyl)-6-(hydroxymethyl)-3-methoxytetrahydro-2H-pyran-2-carboxamide]
IC50 (human Gal-3 (hGal-3)): 77 nM | IC50 (human Gal-1 (hGal-1)): 1670 nM

COc1cc(F)cc(N(C(=O)[C@@H]2O[C@H](CO)[C@H](O)[C@H](n3cc(-c4cc(F)c(F)c(F)c4)nn3)[C@H]2OC)[C@H]2CCCC[C@@H]2O)c1 [Example 118, (2R,3R,4S,5R,6R)-N-(3-fluoro-5-methoxyphenyl)-5-hydroxy-N-((1S,2S)-2-hydroxycyclohexyl)-6-(hydroxymethyl)-3-methoxy-4-(4-(3,4,5-trifluorophenyl)-1H-1,2,3-triazol-1-yl)tetrahydro-2H-pyran-2-carboxamide]
IC50 (human Gal-3 (hGal-3)): 26 nM | IC50 (human Gal-1 (hGal-1)): 1480 nM

COc1ccccc1CN(C(=O)[C@@H]1O[C@H](CO)[C@H](O)[C@H](n2cc(-c3cc(F)c(F)c(F)c3)nn2)[C@H]1OC)[C@H]1CCCC[C@@H]1O [Example 39, (2R,3R,4S,5R,6R)-5-hydroxy-N-((1S,2S)-2-hydroxycyclohexyl)-6-(hydroxymethyl)-3-methoxy-N-(2-methoxybenzyl)-4-(4-(3,4,5-trifluorophenyl)-1H-1,2,3-triazol-1-yl)tetrahydro-2H-pyran-2-carboxamide]
IC50 (human Gal-3 (hGal-3)): 224 nM | IC50 (human Gal-1 (hGal-1)): 2960 nM

CO[C@@H]1[C@@H](n2cc(-c3ccc(C)c(F)c3F)nn2)[C@@H](O)[C@@H](CO)O[C@H]1C(=O)N(c1cc(Cl)cc(C#N)c1)[C@H]1CCCC[C@@H]1O [Example 171, (2R,3R,4S,5R,6R)-N-(3-chloro-5-cyanophenyl)-4-(4-(2,3-difluoro-4-methylphenyl)-1H-1,2,3-triazol-1-yl)-5-hydroxy-N-((1S,2S)-2-hydroxycyclohexyl)-6-(hydroxymethyl)-3-methoxytetrahydro-2H-pyran-2-carboxamide]
IC50 (human Gal-3 (hGal-3)): 12 nM | IC50 (human Gal-1 (hGal-1)): 238 nM

CC(=O)O[C@@H]1[C@@H](n2cc(-c3cc(F)cc(F)c3)nn2)[C@@H](O)[C@@H](CO)O[C@H]1C(=O)N(Cc1ccccc1C(F)(F)F)[C@H]1CCCC[C@@H]1O [Example 63, (2R,3R,4S,5R,6R)-4-(4-(3,5-difluorophenyl)-1H-1,2,3-triazol-1-yl)-5-hydroxy-2-(((1S,2S)-2-hydroxycyclohexyl)(2-(trifluoromethyl)benzyl)carbamoyl)-6-(hydroxymethyl)tetrahydro-2H-pyran-3-yl acetate]
IC50 (human Gal-3 (hGal-3)): 138 nM | IC50 (human Gal-1 (hGal-1)): 1020 nM

CO[C@@H]1[C@@H](n2cc(-c3cc(F)c(F)c(F)c3)nn2)[C@@H](O)[C@@H](CO)O[C@H]1C(=O)N(c1cc(F)cc(C#N)c1)[C@H]1CCCC[C@@H]1O [Example 113, (2R,3R,4S,5R,6R)-N-(3-cyano-5-fluorophenyl)-5-hydroxy-N-((1S,2S)-2-hydroxycyclohexyl)-6-(hydroxymethyl)-3-methoxy-4-(4-(3,4,5-trifluorophenyl)-1H-1,2,3-triazol-1-yl)tetrahydro-2H-pyran-2-carboxamide]
IC50 (human Gal-3 (hGal-3)): 18 nM | IC50 (human Gal-1 (hGal-1)): 520 nM

CO[C@@H]1[C@@H](n2cc(-c3cc(F)c(F)c(F)c3)nn2)[C@@H](O)[C@@H](CO)O[C@H]1C(=O)N(c1ccc(Cl)c(Br)c1)[C@H]1CCCC[C@@H]1O [Example 99, (2R,3R,4S,5R,6R)-N-(3-bromo-4-chlorophenyl)-5-hydroxy-N-((1S,2S)-2-hydroxycyclohexyl)-6-(hydroxymethyl)-3-methoxy-4-(4-(3,4,5-trifluorophenyl)-1H-1,2,3-triazol-1-yl)tetrahydro-2H-pyran-2-carboxamide]
IC50 (human Gal-3 (hGal-3)): 32 nM | IC50 (human Gal-1 (hGal-1)): 377 nM

CC(=O)O[C@@H]1[C@@H](n2cc(-c3cccc(F)c3)nn2)[C@@H](O)[C@@H](CO)O[C@H]1C(=O)N(Cc1ccccc1C(F)(F)F)[C@H]1CCCC[C@@H]1O [Example 62, (2R,3R,4S,5R,6R)-4-(4-(3-fluorophenyl)-1H-1,2,3-triazol-1-yl)-5-hydroxy-2-(((1S,2S)-2-hydroxycyclohexyl)(2-(trifluoromethyl)benzyl)carbamoyl)-6-(hydroxymethyl)tetrahydro-2H-pyran-3-yl acetate]
IC50 (human Gal-3 (hGal-3)): 141 nM | IC50 (human Gal-1 (hGal-1)): 939 nM

CO[C@@H]1[C@@H](n2cc(-c3cc(F)c(F)c(F)c3)nn2)[C@@H](O)[C@@H](CO)O[C@H]1C(=O)N(c1cc(Cl)cc(Cl)c1)[C@H]1CCCCC[C@@H]1O [Example 208, (2R,3R,4S,5R,6R)-N-(3,5-dichlorophenyl)-5-hydroxy-N-((1S,2S)-2-hydroxycycloheptyl)-6-(hydroxymethyl)-3-methoxy-4-(4-(3,4,5-trifluorophenyl)-1H-1,2,3-triazol-1-yl)tetrahydro-2H-pyran-2-carboxamide]
IC50 (human Gal-3 (hGal-3)): 62 nM | IC50 (human Gal-1 (hGal-1)): 586 nM

CO[C@@H]1[C@@H](n2cc(-c3cc(F)cc(F)c3)nn2)[C@@H](O)[C@@H](CO)O[C@H]1C(=O)N(c1cccc(C#N)c1)[C@H]1CCCC[C@@H]1O [Example 86, (2R,3R,4S,5R,6R)-N-(3-cyanophenyl)-4-(4-(3,5-difluorophenyl)-1H-1,2,3-triazol-1-yl)-5-hydroxy-N-((1S,2S)-2-hydroxycyclohexyl)-6-(hydroxymethyl)-3-methoxytetrahydro-2H-pyran-2-carboxamide]
IC50 (human Gal-3 (hGal-3)): 111 nM | IC50 (human Gal-1 (hGal-1)): 1850 nM

CO[C@@H]1[C@@H](n2cc(-c3cc(F)c(F)c(F)c3)nn2)[C@@H](O)[C@@H](CO)O[C@H]1C(=O)N(c1cc(Br)cc(Br)c1)[C@H]1CCCC[C@@H]1O [Example 97, (2R,3R,4S,5R,6R)-N-(3,5-dibromophenyl)-5-hydroxy-N-((1S,2S)-2-hydroxycyclohexyl)-6-(hydroxymethyl)-3-methoxy-4-(4-(3,4,5-trifluorophenyl)-1H-1,2,3-triazol-1-yl)tetrahydro-2H-pyran-2-carboxamide]
IC50 (human Gal-3 (hGal-3)): 13 nM | IC50 (human Gal-1 (hGal-1)): 266 nM

O=C([C@@H]1O[C@H](CO)[C@H](O)[C@H](n2cc(-c3nc(Cl)cs3)nn2)[C@H]1O)N(Cc1ccccc1C(F)(F)F)[C@H]1CCCC[C@@H]1O [Example 71, (2R,3R,4S,5R,6R)-4-(4-(4-chlorothiazol-2-yl)-1H-1,2,3-triazol-1-yl)-3,5-dihydroxy-N-((1S,2S)-2-hydroxycyclohexyl)-6-(hydroxymethyl)-N-(2-(trifluoromethyl)benzyl)tetrahydro-2H-pyran-2-carboxamide]
IC50 (human Gal-3 (hGal-3)): 143 nM | IC50 (human Gal-1 (hGal-1)): 1310 nM

COc1ccc(F)cc1-c1cn([C@H]2[C@@H](O)[C@@H](CO)O[C@@H](C(=O)N(c3cc(Cl)cc(C#N)c3)[C@H]3CCCC[C@@H]3O)[C@@H]2OC)nn1 [Example 76, (2R,3R,4S,5R,6R)-N-(3-chloro-5-cyanophenyl)-4-(4-(5-fluoro-2-methoxyphenyl)-1H-1,2,3-triazol-1-yl)-5-hydroxy-N-((1S,2S)-2-hydroxycyclohexyl)-6-(hydroxymethyl)-3-methoxytetrahydro-2H-pyran-2-carboxamide]
IC50 (human Gal-3 (hGal-3)): 42 nM | IC50 (human Gal-1 (hGal-1)): 901 nM

CO[C@@H]1[C@@H](n2cc(-c3cc(F)c(F)c(F)c3)nn2)[C@@H](O)[C@@H](CO)O[C@H]1C(=O)N(c1ccc2nc(C)sc2c1)[C@H]1CCCC[C@@H]1O [Example 94, (2R,3R,4S,5R,6R)-5-hydroxy-N-((1S,2S)-2-hydroxycyclohexyl)-6-(hydroxymethyl)-3-methoxy-N-(2-methylbenzo[d]thiazol-6-yl)-4-(4-(3,4,5-trifluorophenyl)-1H-1,2,3-triazol-1-yl)tetrahydro-2H-pyran-2-carboxamide]
IC50 (human Gal-3 (hGal-3)): 31 nM | IC50 (human Gal-1 (hGal-1)): 254 nM

CO[C@@H]1[C@@H](n2cc(-c3cc(F)c(F)c(F)c3)nn2)[C@@H](O)[C@@H](CO)O[C@H]1C(=O)N(c1ccccn1)[C@H]1CCCC[C@@H]1O [Example 194, (2R,3R,4S,5R,6R)-5-hydroxy-N-((1S,2S)-2-hydroxycyclohexyl)-6-(hydroxymethyl)-3-methoxy-N-(pyridin-2-yl)-4-(4-(3,4,5-trifluorophenyl)-1H-1,2,3-triazol-1-yl)tetrahydro-2H-pyran-2-carboxamide]
IC50 (human Gal-3 (hGal-3)): 11 nM | IC50 (human Gal-1 (hGal-1)): 2740 nM
